Values quoted from earlier work as cited in PMC9906001 (Pulmonary Circulation, 2023).

Test system: Japanese patients with pulmonary arterial hypertension
Conditions: lowest value among 5, 15, or 30 min after inhalation at Week 12, IBUKI study; cited from earlier work

Question: With `CC#CCC(C)[C@H](O)/C=C/[C@@H]1[C@H]2C/C(=C/CCCC(=O)O)C[C@H]2C[C@H]1O` (stereo partly shown) [iloprost] as the compound, how does the “Best change from baseline in mPAP” value read?
Answer: −6.75 mmHg
